What follows are compounds tested against human IDO1 (Homo sapiens, UniProt P14902) (assay: Assessment of human IDO-1 inhibitory activity in HEK cells (human IDO1/HEK293 cells, kynurenine read-out with Ehrlich reagent, absorbance 490 nm)). Conditions: HEK Human IDO-1 cellular assay.
Assay type: cell-based
Set-up: expressed in transfected cells
In short: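 HEK293 cells stably expressing human IDO1 were seeded at 10,000 per well in phenol red-free RPMI with 10% FBS, treated with compound for 20 h at 37 °C. Kynurenine was measured after TCA (0.2% final) and 30 min at 50 °C, using Ehrlich reagent, A490. IC50 normalised to DMSO (0%) and 500 nM reference standard (100%).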

Sequence of human IDO1 (P14902 whole entry): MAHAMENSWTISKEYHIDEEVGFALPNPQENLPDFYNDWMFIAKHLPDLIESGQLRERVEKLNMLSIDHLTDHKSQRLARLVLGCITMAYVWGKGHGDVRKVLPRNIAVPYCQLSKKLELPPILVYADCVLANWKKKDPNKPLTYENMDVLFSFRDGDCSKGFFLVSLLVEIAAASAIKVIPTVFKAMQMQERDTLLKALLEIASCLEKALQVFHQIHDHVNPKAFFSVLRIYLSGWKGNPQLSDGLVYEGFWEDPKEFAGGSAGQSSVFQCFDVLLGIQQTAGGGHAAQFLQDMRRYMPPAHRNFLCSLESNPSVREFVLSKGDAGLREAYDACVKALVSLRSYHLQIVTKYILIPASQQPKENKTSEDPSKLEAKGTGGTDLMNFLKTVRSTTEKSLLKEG

Row | Structure (SMILES) | IC50
1 | CCCOc1ncc(Nc2cc(C(CC)CC(=O)O)ccc2N(CC(C)C)C2CCCCC2)cn1 (single isomer, unassigned) [Example 647, 3-(4-(cyclohexyl(isobutyl)amino)-3-((2-propoxypyrimidin-5-yl)amino)phenyl)pentanoic acid] | < 5 nM
2 | CCOc1ccc(NC(=O)Nc2cc(C(COC)CC(=O)O)ccc2N(CC(C)C)C2CCOCC2)cc1 (single isomer, unassigned) [Example 1212, 3-(3-(3-(4-Ethoxyphenyl)ureido)-4-(isobutyl(tetrahydro-2H-pyran-4-yl)amino)phenyl)-4-methoxybutanoic acid] | > 50 nM
3 | CC[C@@H](CC(=O)O)c1ccc(N2CCOC[C@@H]2C(C)C)c(NC(=O)Nc2ccc(C)cc2)c1 (single isomer, unassigned) [Example 74] | > 50 nM
4 | CCN(c1ccc(C(CC(=O)O)c2ccccc2)cc1Nc1ccc2nc(C)sc2c1)C1CCOCC1 (single isomer, unassigned) [Example 579, 3-(4-(ethyl(tetrahydro-2H-pyran-4-yl)amino)-3-((2-methylbenzo[d]thiazol-6-yl)amino)phenyl)-3-phenylpropanoic acid] | > 50 nM
5 | CCOc1ccc(NC(=O)Nc2cc(C(CC)CC(=O)O)c(F)cc2N(CC(C)C)CC(C)C)cc1 (racemic) [Example 1131, (±)-3-(4-(Diisobutylamino)-5-(3-(4-ethoxyphenyl)ureido)-2-fluorophenyl)pentanoic acid] | < 5 nM
6 | CCC(CC(=O)O)c1ccc(N(CC(C)C)CC(C)C)c(NC(=O)Cc2ccc(C)cc2)c1 (single isomer, unassigned) [Example 1103 E1, 3-(4-(Diisobutylamino)-3-(2-(p-tolyl)acetamido)phenyl)pentanoic acid] | < 5 nM
7 | COCC(CC(=O)O)c1ccc(N(CC(C)C)C2CCCCC2)c(NC(=O)Nc2ccc(OC(F)(F)F)cc2)c1 (single isomer, unassigned) [Example 1243, 3-(4-(Cyclohexyl(isobutyl)amino)-3-(3-(4-(trifluoromethoxy)phenyl)ureido)phenyl)-4-methoxybutanoic acid] | < 50 nM
8 | CC(CC(=O)O)c1ccc(N2CCC[C@H]2C(C)(C)O)c(Nc2ccc(F)cc2)c1 (single isomer, unassigned) [Example 798] | > 50 nM
9 | CC[C@H](CC(=O)O)c1ccc(N(CC)C2CCOCC2)c(NC(=O)Nc2ccc(Cl)cc2F)c1 (single isomer, unassigned) [Example 526] | < 5 nM
10 | CCN(c1ccc(C(CC(=O)O)c2ccccc2)cc1Nc1ccc(Cl)cc1F)C1CCOCC1 (single isomer, unassigned) [Example 592, 3-(3-((4-chloro-2-fluorophenyl)amino)-4-(ethyl(tetrahydro-2H-pyran-4-yl)amino)phenyl)-3-phenylpropanoic acid] | > 50 nM
11 | COCC(CC(=O)O)c1cc(F)c(N(CC(C)C)CC(C)C)c(Nc2ccc3c(c2)OC(F)(F)O3)c1 (single isomer, unassigned) [Example 927, 3-(3-((2,2-difluorobenzo[d] [1,3]dioxol-5-yl)amino)-4-(diisobutylamino)-5-fluorophenyl)-4-methoxybutanoic acid.] | < 50 nM
12 | CCOc1ncc(Nc2cc(C(CC)CC(=O)O)cc(F)c2N(CC(C)C)CC(C)C)cn1 (single isomer, unassigned) [Example 103, 3-(4-(diisobutylamino)-3-((2-ethoxypyrimidin-5-yl)amino)-5-fluorophenyl)pentanoic acid] | < 5 nM
13 | CCOc1ccc(Nc2cc(C(CC)CC(=O)O)ccc2N2CCC[C@H]2C(C)(C)O)cc1 (single isomer, unassigned) [Example 833] | > 50 nM
14 | COCC(CC(=O)O)c1ccc(N(CC2CC2)C2CCOCC2)c(Nc2ccc(Cl)c(OCC(F)F)c2)c1 (single isomer, unassigned) [Example 684, 3-(3-((4-chloro-3-(2,2-difluoroethoxy)phenyl)amino)-4-((cyclopropylmethyl) (tetrahydro-2H-pyran-4-yl)amino)phenyl)-4-methoxybutanoic acid] | < 50 nM
15 | CCOc1ncc(Nc2cc(C(CC)CC(=O)O)ccc2N2CCOC[C@H]2C(C)C)cn1 (single isomer, unassigned) [Example 903] | < 50 nM
16 | CCOc1ccc(NC(=O)Nc2cc(C(CC)CC(=O)O)ccc2N2CCC[C@H]2C(C)(C)O)cc1 (single isomer, unassigned) [Example 826] | > 50 nM
17 | CCC(CC(=O)O)c1ccc(N2CCC[C@H]2C(C)(C)O)c(Nc2ccc(F)cc2)c1 (single isomer, unassigned) [Example 840] | < 50 nM
18 | CCC(CC(=O)O)c1ccc(N2CCC[C@@H]2COC)c(NC(=O)Cc2ccc(C)cc2)c1 (mixture of isomers) [Example 1143, (±)-3-(4-((R)-2-(Methoxymethyl)pyrrolidin-1-yl)-3-(2-(p-tolyl)acetamido)phenyl)pentanoic acid] | > 50 nM
19 | COCC(CC(=O)O)c1cc(F)c(N(CC(C)C)C2CCCCC2)c(NC(=O)Nc2ccc(OC)cc2F)c1 (centres unmarked) [Example 1159, 3-(4-(cyclohexyl(isobutyl)amino)-3-fluoro-5-(3-(2-fluoro-4-methoxyphenyl)ureido)phenyl)-4-methoxybutanoic acid] | < 5 nM

Row | Structure (SMILES) | IC50
20 | CCC(CC(=O)O)c1ccc(N2CCC[C@H]2C(C)(C)O)c(NC(=O)Nc2ccc(OC)cc2F)c1 (single isomer, unassigned) [Example 814] | > 50 nM
21 | CCN(c1ccc(C(CC(=O)O)c2ccccc2)cc1Nc1ccc(Cl)cc1)C1CCOCC1 (single isomer, unassigned) [Example 590, 3-(3-((4-chlorophenyl)amino)-4-(ethyl(tetrahydro-2H-pyran-4-yl)amino)phenyl)-3-phenylpropanoic acid] | < 50 nM
22 | CCOc1cnc(Nc2cc(C(C)CC(=O)O)ccc2N(CC)C2CCOCC2)cn1 (single isomer, unassigned) [Example 618, 3-(3-((5-ethoxypyrazin-2-yl)amino)-4-(ethyl (tetrahydro-2H-pyran-4-yl)amino)phenyl)butanoic acid] | < 5 nM
23 | CC[C@@H](CC(=O)O)c1ccc(N(CC)C2CCOCC2)c(NC(=O)Nc2ccc3c(c2)CS(=O)(=O)C3)c1 (single isomer, unassigned) [Example 496] | > 50 nM
24 | CCC(CC(=O)O)c1cc(F)c(N(CC(C)C)CC(C)C)c(NC(=O)Nc2ccc(C#N)c(Cl)c2)c1 (racemic) [Example 978, (+/−)-3-(3-(3-(3-chloro-4-cyanophenyl)ureido)-4-(diisobutylamino)-5-fluorophenyl)pentanoic acid] | < 50 nM
25 | CCN(c1ccc(C(C)(C)CC(=O)O)cc1Nc1ccc(Cl)cc1)C1CCC(C)(O)CC1 (centres unmarked) [Example 1, 3-(3-((4-Chlorophenyl)amino)-4-(ethyl(4-hydroxy-4-methylcyclohexyl)amino)phenyl)-3-methylbutanoic acid] | < 5 nM
26 | CCc1ccc(Nc2cc([C@H](CC)CC(=O)O)ccc2N(CC)C2CCCCC2)cc1 (single isomer, unassigned) [Example 288] | < 50 nM
27 | CCC(CC(=O)O)c1cc(F)c(N(CC(C)C)CC(C)C)c(NC(=O)Nc2ccc(C)c(F)c2)c1 (single isomer, unassigned) [982-1] | < 5 nM
28 | CCC(CC(=O)O)c1ccc(N(CC2CC2)C2CCOCC2)c(NC(=O)Nc2cc(C)on2)c1 (single isomer, unassigned) [Example 697, 3-(4-((Cyclopropylmethyl)(tetrahydro-2H-pyran-4-yl)amino)-3-(3-(5-methylisoxazol-3-yl)ureido)phenyl)pentanoic acid] | > 50 nM
29 | CCC(CC(=O)O)c1ccc(N(CC(C)C)C2CCCCC2)c(Nc2ccc(Cl)cc2F)c1 (single isomer, unassigned) [Example 307, 3-(3-((4-chloro-2-fluorophenyl)amino)-4-(cyclohexyl(isobutyl)amino)phenyl)pentanoic acid] | < 50 nM
30 | CCOc1ccc(NC(=O)Nc2cc(C(CC)CC(=O)O)c(F)cc2N(CC(C)C)CC(C)C)c(F)c1 (single isomer, unassigned) [Example 1138, 3-(4-(Diisobutylamino)-5-(3-(4-ethoxy-2-fluorophenyl)ureido)-2-fluorophenyl)pentanoic acid] | < 5 nM
31 | CCC(CC(=O)O)c1ccc(N2CCC[C@H]2C(C)(C)O)c(Nc2ccc(Cl)cc2)c1 (single isomer, unassigned) [Example 820] | < 5 nM
32 | CC(CC(=O)O)c1ccc(N2C[C@@H](C)O[C@@H](C)C2)c(Nc2ccc(F)cc2)c1 (single isomer, unassigned) [Example 738] | > 50 nM
33 | CCOc1ccc(NC(=O)Nc2cc(C(COC)CC(=O)O)ccc2N(CC(C)C)C2CCCCC2)c(F)c1 (single isomer, unassigned) [Example 1236, 3-(4-(Cyclohexyl(isobutyl)amino)-3-(3-(4-ethoxy-2-fluorophenyl)ureido)phenyl)-4-methoxybutanoic acid] | < 5 nM
34 | CCC(CC(=O)O)c1ccc(N(CC(C)C)C2CCCCC2)c(Nc2ccc(F)cc2)c1 (single isomer, unassigned) [Example 311, 3-(4-(cyclohexyl(isobutyl)amino)-3-((4-fluorophenyl)amino)phenyl)pentanoic acid] | < 5 nM
35 | CCC(CC(=O)O)c1ccc(N2CCOC[C@H]2C(C)C)c(NC(=O)Nc2ccc(C)cc2)c1 (single isomer, unassigned) [Example 895] | > 50 nM
36 | CC[C@@H](CC(=O)O)c1ccc(N(CC)C2CCOCC2)c(Nc2ccc(S(=O)(=O)CC)cc2)c1 (single isomer, unassigned) [Example 485] | < 50 nM
37 | CCN(c1ccc([C@@H](COC)CC(=O)NS(C)(=O)=O)cc1Nc1ccc(C#N)cc1)C1CCOCC1 (stereo in doubt) [Example 1077, 3-(3-((4-Cyanophenyl)amino)-4-(ethyl(tetrahydro-2H-pyran-4-yl)amino)phenyl)-4-methoxy-N-(methylsulfonyl)butanamide] | < 50 nM
38 | CC[C@H](CC(=O)O)c1ccc(N(CC)C2CCOCC2)c(Nc2ccc(C#N)cc2)c1 (single isomer, unassigned) [Example 501] | < 5 nM
